Measured values published in PubChem BioAssay (NCI).
Values joined by “and” are separate entries in the source; they are usually repeats but may differ in a detail not shown here. Identical values can stand only once.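 Assay format: 96-well plates, 48-hour exposure. GI50 = concentration required for 50% inhibition of growth. TGI is the concentration that stops growth completely.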

Key:
Assay in all cases: inhibition of tumour cell growth, NCI panel, 48 h
A498 renal = test system: A498 renal
CCRF-CEM leukemia = test system: CCRF-CEM leukemia
HOP-92 NSCLC = test system: HOP-92 NSCLC
NCI-H23 lung = test system: NCI-H23 lung
NCI-H460 lung = test system: NCI-H460 lung
RXF 393 renal = test system: RXF 393 renal
SF-268 CNS = test system: SF-268 CNS
SF-295 CNS = test system: SF-295 CNS
SK-MEL-5 melanoma = test system: SK-MEL-5 melanoma
UACC-257 melanoma = test system: UACC-257 melanoma

| Compound | GI50 (A498 renal) | TGI (A498 renal) | GI50 (CCRF-CEM leukemia) | TGI (CCRF-CEM leukemia) | GI50 (HOP-92 NSCLC) | TGI (HOP-92 NSCLC) | GI50 (NCI-H23 lung) | TGI (NCI-H23 lung) | GI50 (NCI-H460 lung) | TGI (NCI-H460 lung) | GI50 (RXF 393 renal) | TGI (RXF 393 renal) | GI50 (SF-268 CNS) | TGI (SF-268 CNS) | GI50 (SF-295 CNS) | TGI (SF-295 CNS) | GI50 (SK-MEL-5 melanoma) | TGI (SK-MEL-5 melanoma) | GI50 (UACC-257 melanoma) | TGI (UACC-257 melanoma) |
| --- | --- | --- | --- | --- | --- | --- | --- | --- | --- | --- | --- | --- | --- | --- | --- | --- | --- | --- | --- | --- |
| C/C(=N\NC(=S)N1CCCCC1)c1ccccn1 | 0.228 µM | 2.32 µM | < 0.0143 µM | > 25.1 µM | 0.0963 µM | 4.54 µM | < 0.01 µM | 9.71 µM | < 0.0151 µM | 1.5 µM | 0.295 µM | 1.79 µM | 0.0762 µM | 12.3 µM | < 0.0115 µM | 4.5 µM | 0.0694 µM | 0.87 µM | < 0.01 µM | 0.442 µM |
| COC[C@@H](N=C1NC(=O)/C(=C/c2ccc3ncccc3c2)S1)c1ccccc1 | 4.25 µM | 12.5 µM | 6.8 µM | > 22 µM | 5.07 µM | > 21.1 µM | 11.5 µM | > 25 µM | 8 µM | > 25 µM | 6.47 µM | > 24.2 µM | 11.8 µM | > 25 µM | 8.71 µM | > 25 µM | 7.51 µM | 24.9 µM | 8.09 µM | > 25 µM |
| O=C(Cc1ccc(/C=C/C(=O)c2ncc[nH]2)cc1)Nc1ccc(F)cc1 | 8.92 µM | 22.9 µM | 1.68 µM | > 33.3 µM | 9.11 µM | 30.5 µM | 1.91 µM | 9.54 µM | 1.72 µM | 14.6 µM | 3.44 µM | 8.92 µM | 5.1 µM | 26.3 µM | 4.74 µM | 11.5 µM | 6.06 µM | 11.9 µM | 8.67 µM | 30.6 µM |
| O=c1c2c(=NCCN3CCCC3)cc3c(=O)n(CCCN4CCOCC4)c(=O)c4c(-c5ccc(CN6CCCC6)cc5)cc(c(O)n1CCCN1CCOCC1)c2c4-3 | 0.0381 µM | 0.155 µM | 0.0673 µM | 1.05 µM | 0.0178 µM | 0.0735 µM | 0.0261 µM | 0.158 µM | 0.0247 µM | 0.245 µM | 0.0204 µM | 0.0779 µM | 0.0781 µM | 0.567 µM | 0.164 µM | 0.796 µM | 0.133 µM | 0.3 µM | 0.194 µM | 1.33 µM |
| COC(=O)C1CCc2c1c(=O)n1c([nH]c3ccccc31)c2C#N (centres undefined) | – | > 100 µM | – | > 100 µM | – | > 100 µM | – | > 100 µM | – | > 100 µM | – | > 100 µM | – | > 100 µM | – | > 100 µM | – | > 100 µM | – | > 100 µM |
| Fc1cccc(COc2ccc(Nc3ncnc4sc(-c5cccs5)cc34)cc2Cl)c1 | 6.88 µM | > 21.7 µM | > 25 µM | > 25 µM | 3.3 µM | 10.2 µM | > 13.6 µM | > 25 µM | 7.63 µM | > 17 µM | 4.37 µM | 12 µM | 11.4 µM | > 22.8 µM | 9.81 µM | > 25 µM | 2.93 µM | 12 µM | 1.42 µM | > 14 µM |
| OCCN1CCN(CCCN2c3ccccc3Sc3ccc(Cl)cc32)CC1 | 1.56 µM | 5.87 µM | 2.2 µM | 6.24 µM | 1.37 µM | 6.72 µM | 3.83 µM | 18 µM | 1.98 µM | 4.22 µM | 1.96 µM | 7.68 µM | 2.79 µM | 10.7 µM | 1.75 µM | 3.65 µM | 1.65 µM | 3 µM | 1.66 µM | 3.36 µM |
| CN(c1ncccc1CNc1nc(Nc2ccc3c(c2)CC(=O)N3)ncc1C(F)(F)F)S(C)(=O)=O | 2.81 µM | 7.14 µM | 3 µM and 2.46 µM | – | 0.0987 µM and 0.192 µM | 1.85 µM and 5.99 µM | 1.79 µM and 2.16 µM | 4.88 µM and 6.35 µM | 2.14 µM and 2.95 µM | 7.32 µM and > 10 µM | 1.61 µM and 1.48 µM | 3.98 µM and 4.08 µM | 2.33 µM and 2.65 µM | 13 µM and > 10 µM | 2.2 µM and 2.55 µM | > 100 µM | 2.57 µM and 2.28 µM | 7.44 µM and 5.85 µM | 1.6 µM and 2.24 µM | 5.54 µM and 8.76 µM |
| O=C(NCCCCCCCCCCCCNC(=O)c1cccc2ccccc12)c1cccc2ccccc12 | – | > 74.4 µM | – | > 100 µM | – | > 72.1 µM | – | > 100 µM | – | > 100 µM | – | > 100 µM | – | > 100 µM | – | > 83 µM | – | > 100 µM | – | > 100 µM |
| CCC(C)CCOC(=O)c1ccc(N=Cc2ccc(C=Nc3ccc(C(=O)OCCC(C)CC)cc3)cc2)cc1 (centres undefined) | – | > 100 µM | – | > 100 µM | – | > 100 µM | – | > 100 µM | – | > 100 µM | – | > 100 µM | – | > 100 µM | – | > 100 µM | – | > 100 µM | – | > 100 µM |
